Laboratory results as given in the kinase profiling compilation of Christmann-Franck et al. (2016).

Biological target: CDK3 CCNE1 (human) (UniProt Q00526+P24864)
Test: radiometric filter-binding kinase assay, Kinase HotSpot
Conditions: compound 0.5 µM; ATP 10 µM

Chain of CDK3 CCNE1 (human) (P24864 whole entry, looked up): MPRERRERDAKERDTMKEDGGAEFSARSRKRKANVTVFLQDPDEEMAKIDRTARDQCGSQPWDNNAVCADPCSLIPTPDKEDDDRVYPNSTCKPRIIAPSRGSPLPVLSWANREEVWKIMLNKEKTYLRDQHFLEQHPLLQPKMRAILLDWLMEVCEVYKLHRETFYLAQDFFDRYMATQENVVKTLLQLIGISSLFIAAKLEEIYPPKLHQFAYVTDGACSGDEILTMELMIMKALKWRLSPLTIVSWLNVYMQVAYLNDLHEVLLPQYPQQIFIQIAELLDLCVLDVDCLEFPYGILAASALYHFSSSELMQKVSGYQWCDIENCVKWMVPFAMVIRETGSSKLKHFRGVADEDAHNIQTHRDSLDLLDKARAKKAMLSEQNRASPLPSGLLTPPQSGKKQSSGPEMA
Chain of CDK3 CCNE1 (human) (Q00526 whole entry, looked up): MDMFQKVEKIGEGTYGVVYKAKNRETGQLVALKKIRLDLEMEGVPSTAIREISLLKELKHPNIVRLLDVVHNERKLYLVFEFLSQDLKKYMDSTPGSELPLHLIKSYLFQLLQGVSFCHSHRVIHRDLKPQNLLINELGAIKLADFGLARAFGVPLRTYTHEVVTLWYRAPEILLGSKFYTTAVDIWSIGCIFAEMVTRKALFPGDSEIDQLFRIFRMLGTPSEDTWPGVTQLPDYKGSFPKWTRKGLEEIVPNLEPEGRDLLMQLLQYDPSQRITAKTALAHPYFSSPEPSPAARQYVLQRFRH

Row | Structure (SMILES) | residual activity [%]
1 | O=C1NC(=O)c2cc(Nc3ccc(F)cc3)c(Nc3ccc(F)cc3)cc21 | 98.9
2 | N#CCCc1ccc2c(c1)-c1[nH]c3ccc([N+](=O)[O-])cc3c1CC(=O)N2 | 39.7
3 | O=c1c2ccccc2[nH]c(=S)n1CCN1CCC(=C(c2ccc(F)cc2)c2ccc(F)cc2)CC1 | 100
4 | O=S(=O)(NCCNC/C=C/c1ccc(Br)cc1)c1cccc2cnccc12 | 77.3

Biological target: NEK4 (human) (UniProt P51957)
Test: as above
Conditions: compound 0.5 µM; ATP 10 µM

Row | Structure (SMILES) | residual activity [%]
5 | O=C1NC(=O)c2cc(Nc3ccc(F)cc3)c(Nc3ccc(F)cc3)cc21 | 107
6 | N#CCCc1ccc2c(c1)-c1[nH]c3ccc([N+](=O)[O-])cc3c1CC(=O)N2 | 104
7 | O=c1c2ccccc2[nH]c(=S)n1CCN1CCC(=C(c2ccc(F)cc2)c2ccc(F)cc2)CC1 | 99.1
8 | O=S(=O)(NCCNC/C=C/c1ccc(Br)cc1)c1cccc2cnccc12 | 96.9

Biological target: MYLK (human) (UniProt Q15746)
Sequence (Q15746 whole entry, looked up): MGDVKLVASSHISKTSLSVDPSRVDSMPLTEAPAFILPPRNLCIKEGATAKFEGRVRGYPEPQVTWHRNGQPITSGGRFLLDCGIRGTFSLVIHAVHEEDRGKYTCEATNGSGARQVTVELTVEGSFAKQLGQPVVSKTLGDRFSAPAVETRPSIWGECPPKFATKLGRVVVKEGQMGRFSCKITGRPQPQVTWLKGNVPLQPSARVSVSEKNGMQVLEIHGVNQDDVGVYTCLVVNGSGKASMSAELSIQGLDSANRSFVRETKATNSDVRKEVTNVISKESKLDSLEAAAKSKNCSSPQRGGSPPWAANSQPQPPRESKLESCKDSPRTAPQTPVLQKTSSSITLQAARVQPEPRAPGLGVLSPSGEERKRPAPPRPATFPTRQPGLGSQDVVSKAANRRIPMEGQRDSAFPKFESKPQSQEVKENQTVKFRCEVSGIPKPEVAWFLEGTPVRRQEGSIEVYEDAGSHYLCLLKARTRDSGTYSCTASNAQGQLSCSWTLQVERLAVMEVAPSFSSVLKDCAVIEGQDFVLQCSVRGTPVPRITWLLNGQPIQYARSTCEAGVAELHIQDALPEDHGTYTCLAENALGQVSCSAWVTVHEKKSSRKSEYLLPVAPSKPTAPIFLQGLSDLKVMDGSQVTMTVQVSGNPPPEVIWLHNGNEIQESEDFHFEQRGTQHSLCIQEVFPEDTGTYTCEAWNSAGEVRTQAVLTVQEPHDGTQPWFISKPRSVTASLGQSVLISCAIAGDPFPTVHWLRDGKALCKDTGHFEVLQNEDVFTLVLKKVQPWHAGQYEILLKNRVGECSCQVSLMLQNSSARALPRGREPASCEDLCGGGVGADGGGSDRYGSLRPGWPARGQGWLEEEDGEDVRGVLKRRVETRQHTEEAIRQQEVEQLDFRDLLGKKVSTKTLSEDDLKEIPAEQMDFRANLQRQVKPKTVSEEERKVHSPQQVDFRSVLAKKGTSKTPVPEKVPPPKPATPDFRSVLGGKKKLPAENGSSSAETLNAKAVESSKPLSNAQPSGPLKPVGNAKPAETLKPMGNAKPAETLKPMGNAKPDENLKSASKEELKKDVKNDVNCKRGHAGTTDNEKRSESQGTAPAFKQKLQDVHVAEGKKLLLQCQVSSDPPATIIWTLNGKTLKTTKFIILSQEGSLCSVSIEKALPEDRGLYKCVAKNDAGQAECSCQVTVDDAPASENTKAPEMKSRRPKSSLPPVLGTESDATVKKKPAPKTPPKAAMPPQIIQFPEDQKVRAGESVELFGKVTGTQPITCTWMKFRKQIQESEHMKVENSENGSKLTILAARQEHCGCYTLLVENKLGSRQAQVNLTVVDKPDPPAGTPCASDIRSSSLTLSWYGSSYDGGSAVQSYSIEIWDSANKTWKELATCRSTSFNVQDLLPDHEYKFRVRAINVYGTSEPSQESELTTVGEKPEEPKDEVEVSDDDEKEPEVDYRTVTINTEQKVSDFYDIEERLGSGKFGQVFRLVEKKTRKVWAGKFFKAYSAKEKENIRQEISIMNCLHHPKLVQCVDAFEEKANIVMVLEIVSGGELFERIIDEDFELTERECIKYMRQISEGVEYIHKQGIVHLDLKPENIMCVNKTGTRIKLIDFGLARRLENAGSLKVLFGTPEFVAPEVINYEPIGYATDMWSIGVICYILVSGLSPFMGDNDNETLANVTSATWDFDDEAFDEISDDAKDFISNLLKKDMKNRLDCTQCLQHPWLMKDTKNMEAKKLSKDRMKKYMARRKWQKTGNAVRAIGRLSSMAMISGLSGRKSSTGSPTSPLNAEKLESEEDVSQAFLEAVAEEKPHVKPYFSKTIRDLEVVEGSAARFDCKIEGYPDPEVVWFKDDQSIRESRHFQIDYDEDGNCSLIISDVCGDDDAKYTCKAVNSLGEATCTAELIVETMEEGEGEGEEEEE
Test: as above
Conditions: compound 0.5 µM; ATP 10 µM

Row | Structure (SMILES) | residual activity [%]
9 | O=C1NC(=O)c2cc(Nc3ccc(F)cc3)c(Nc3ccc(F)cc3)cc21 | 100
10 | N#CCCc1ccc2c(c1)-c1[nH]c3ccc([N+](=O)[O-])cc3c1CC(=O)N2 | 95.2
11 | O=c1c2ccccc2[nH]c(=S)n1CCN1CCC(=C(c2ccc(F)cc2)c2ccc(F)cc2)CC1 | 96.2
12 | O=S(=O)(NCCNC/C=C/c1ccc(Br)cc1)c1cccc2cnccc12 | 90.8

Biological target: CDK4 CCND1 (human) (UniProt P24385+P11802)
Test: as above
Conditions: compound 0.5 µM; ATP 10 µM

Row | Structure (SMILES) | residual activity [%]
13 | O=C1NC(=O)c2cc(Nc3ccc(F)cc3)c(Nc3ccc(F)cc3)cc21 | 101
14 | N#CCCc1ccc2c(c1)-c1[nH]c3ccc([N+](=O)[O-])cc3c1CC(=O)N2 | 11.8
15 | O=c1c2ccccc2[nH]c(=S)n1CCN1CCC(=C(c2ccc(F)cc2)c2ccc(F)cc2)CC1 | 99.6
16 | O=S(=O)(NCCNC/C=C/c1ccc(Br)cc1)c1cccc2cnccc12 | 93.9

Biological target: JAK1 JH1 catalytic (human) (UniProt P23458)
Test: as above
Conditions: compound 0.5 µM; ATP 10 µM

Row | Structure (SMILES) | residual activity [%]
17 | O=C1NC(=O)c2cc(Nc3ccc(F)cc3)c(Nc3ccc(F)cc3)cc21 | 91.5
18 | N#CCCc1ccc2c(c1)-c1[nH]c3ccc([N+](=O)[O-])cc3c1CC(=O)N2 | 91.9
19 | O=c1c2ccccc2[nH]c(=S)n1CCN1CCC(=C(c2ccc(F)cc2)c2ccc(F)cc2)CC1 | 105
20 | O=S(=O)(NCCNC/C=C/c1ccc(Br)cc1)c1cccc2cnccc12 | 87.3

Biological target: LTK (human) (UniProt P29376)
Test: as above
Conditions: compound 0.5 µM; ATP 10 µM

Row | Structure (SMILES) | residual activity [%]
21 | O=C1NC(=O)c2cc(Nc3ccc(F)cc3)c(Nc3ccc(F)cc3)cc21 | 99.7
22 | N#CCCc1ccc2c(c1)-c1[nH]c3ccc([N+](=O)[O-])cc3c1CC(=O)N2 | 80
23 | O=c1c2ccccc2[nH]c(=S)n1CCN1CCC(=C(c2ccc(F)cc2)c2ccc(F)cc2)CC1 | 97.9
24 | O=S(=O)(NCCNC/C=C/c1ccc(Br)cc1)c1cccc2cnccc12 | 94.7

Biological target: CAMK2G (human) (UniProt Q13555)
Test: as above
Conditions: compound 0.5 µM; ATP 10 µM

Row | Structure (SMILES) | residual activity [%]
25 | O=C1NC(=O)c2cc(Nc3ccc(F)cc3)c(Nc3ccc(F)cc3)cc21 | 101
26 | N#CCCc1ccc2c(c1)-c1[nH]c3ccc([N+](=O)[O-])cc3c1CC(=O)N2 | 66
27 | O=c1c2ccccc2[nH]c(=S)n1CCN1CCC(=C(c2ccc(F)cc2)c2ccc(F)cc2)CC1 | 97.9
28 | O=S(=O)(NCCNC/C=C/c1ccc(Br)cc1)c1cccc2cnccc12 | 98.7

Biological target: BTK (human) (UniProt Q06187)
Test: as above
Conditions: compound 0.5 µM; ATP 10 µM

Row | Structure (SMILES) | residual activity [%]
29 | O=C1NC(=O)c2cc(Nc3ccc(F)cc3)c(Nc3ccc(F)cc3)cc21 | 94.3
30 | N#CCCc1ccc2c(c1)-c1[nH]c3ccc([N+](=O)[O-])cc3c1CC(=O)N2 | 94.6
31 | O=c1c2ccccc2[nH]c(=S)n1CCN1CCC(=C(c2ccc(F)cc2)c2ccc(F)cc2)CC1 | 105
32 | O=S(=O)(NCCNC/C=C/c1ccc(Br)cc1)c1cccc2cnccc12 | 97.4

Biological target: RPS6KB2 (human) (UniProt Q9UBS0)
Test: as above
Conditions: compound 0.5 µM; ATP 10 µM

Row | Structure (SMILES) | residual activity [%]
33 | O=C1NC(=O)c2cc(Nc3ccc(F)cc3)c(Nc3ccc(F)cc3)cc21 | 93.9
34 | N#CCCc1ccc2c(c1)-c1[nH]c3ccc([N+](=O)[O-])cc3c1CC(=O)N2 | 96.1
35 | O=c1c2ccccc2[nH]c(=S)n1CCN1CCC(=C(c2ccc(F)cc2)c2ccc(F)cc2)CC1 | 102
36 | O=S(=O)(NCCNC/C=C/c1ccc(Br)cc1)c1cccc2cnccc12 | 71.9

Biological target: CLK1 (human) (UniProt P49759)
Sequence (P49759 whole entry, looked up): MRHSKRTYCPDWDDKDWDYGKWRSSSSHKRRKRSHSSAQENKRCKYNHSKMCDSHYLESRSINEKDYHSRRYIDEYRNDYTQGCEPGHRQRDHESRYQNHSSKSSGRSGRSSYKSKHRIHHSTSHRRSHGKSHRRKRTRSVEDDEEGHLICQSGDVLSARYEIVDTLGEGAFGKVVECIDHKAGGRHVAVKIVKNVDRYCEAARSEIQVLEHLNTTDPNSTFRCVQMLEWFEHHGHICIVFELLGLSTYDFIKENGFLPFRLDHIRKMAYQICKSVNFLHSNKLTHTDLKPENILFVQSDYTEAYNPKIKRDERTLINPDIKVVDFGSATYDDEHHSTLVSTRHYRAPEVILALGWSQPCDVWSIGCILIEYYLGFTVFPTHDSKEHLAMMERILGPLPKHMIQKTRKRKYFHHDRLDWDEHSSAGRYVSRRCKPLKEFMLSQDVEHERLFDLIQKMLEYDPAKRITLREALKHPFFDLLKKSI
Test: as above
Conditions: compound 0.5 µM; ATP 10 µM

Row | Structure (SMILES) | residual activity [%]
37 | O=C1NC(=O)c2cc(Nc3ccc(F)cc3)c(Nc3ccc(F)cc3)cc21 | 102
38 | N#CCCc1ccc2c(c1)-c1[nH]c3ccc([N+](=O)[O-])cc3c1CC(=O)N2 | 99.6
39 | O=c1c2ccccc2[nH]c(=S)n1CCN1CCC(=C(c2ccc(F)cc2)c2ccc(F)cc2)CC1 | 113
40 | O=S(=O)(NCCNC/C=C/c1ccc(Br)cc1)c1cccc2cnccc12 | 103

Biological target: TAOK2 (human) (UniProt Q9UL54)
Test: as above
Conditions: compound 0.5 µM; ATP 10 µM

Row | Structure (SMILES) | residual activity [%]
41 | O=C1NC(=O)c2cc(Nc3ccc(F)cc3)c(Nc3ccc(F)cc3)cc21 | 94.7
42 | N#CCCc1ccc2c(c1)-c1[nH]c3ccc([N+](=O)[O-])cc3c1CC(=O)N2 | 86.4
43 | O=c1c2ccccc2[nH]c(=S)n1CCN1CCC(=C(c2ccc(F)cc2)c2ccc(F)cc2)CC1 | 109
44 | O=S(=O)(NCCNC/C=C/c1ccc(Br)cc1)c1cccc2cnccc12 | 90.7

Biological target: MAP3K11 (human) (UniProt Q16584)
Test: as above
Conditions: compound 0.5 µM; ATP 10 µM

Row | Structure (SMILES) | residual activity [%]
45 | O=C1NC(=O)c2cc(Nc3ccc(F)cc3)c(Nc3ccc(F)cc3)cc21 | 98.4
46 | N#CCCc1ccc2c(c1)-c1[nH]c3ccc([N+](=O)[O-])cc3c1CC(=O)N2 | 18.4
47 | O=c1c2ccccc2[nH]c(=S)n1CCN1CCC(=C(c2ccc(F)cc2)c2ccc(F)cc2)CC1 | 95.2
48 | O=S(=O)(NCCNC/C=C/c1ccc(Br)cc1)c1cccc2cnccc12 | 95.6

Biological target: DCLK2 (human) (UniProt Q8N568)
Test: as above
Conditions: compound 0.5 µM; ATP 10 µM

Row | Structure (SMILES) | residual activity [%]
49 | O=C1NC(=O)c2cc(Nc3ccc(F)cc3)c(Nc3ccc(F)cc3)cc21 | 100
50 | N#CCCc1ccc2c(c1)-c1[nH]c3ccc([N+](=O)[O-])cc3c1CC(=O)N2 | 104
51 | O=c1c2ccccc2[nH]c(=S)n1CCN1CCC(=C(c2ccc(F)cc2)c2ccc(F)cc2)CC1 | 101
52 | O=S(=O)(NCCNC/C=C/c1ccc(Br)cc1)c1cccc2cnccc12 | 90.1

Biological target: MAPKAPK5 (human) (UniProt Q8IW41)
Test: as above
Conditions: compound 0.5 µM; ATP 10 µM

Row | Structure (SMILES) | residual activity [%]
53 | O=C1NC(=O)c2cc(Nc3ccc(F)cc3)c(Nc3ccc(F)cc3)cc21 | 93.4
54 | N#CCCc1ccc2c(c1)-c1[nH]c3ccc([N+](=O)[O-])cc3c1CC(=O)N2 | 94.3
55 | O=c1c2ccccc2[nH]c(=S)n1CCN1CCC(=C(c2ccc(F)cc2)c2ccc(F)cc2)CC1 | 101
56 | O=S(=O)(NCCNC/C=C/c1ccc(Br)cc1)c1cccc2cnccc12 | 90.2

Biological target: MAPK1 (human) (UniProt P28482)
Sequence (P28482 whole entry, looked up): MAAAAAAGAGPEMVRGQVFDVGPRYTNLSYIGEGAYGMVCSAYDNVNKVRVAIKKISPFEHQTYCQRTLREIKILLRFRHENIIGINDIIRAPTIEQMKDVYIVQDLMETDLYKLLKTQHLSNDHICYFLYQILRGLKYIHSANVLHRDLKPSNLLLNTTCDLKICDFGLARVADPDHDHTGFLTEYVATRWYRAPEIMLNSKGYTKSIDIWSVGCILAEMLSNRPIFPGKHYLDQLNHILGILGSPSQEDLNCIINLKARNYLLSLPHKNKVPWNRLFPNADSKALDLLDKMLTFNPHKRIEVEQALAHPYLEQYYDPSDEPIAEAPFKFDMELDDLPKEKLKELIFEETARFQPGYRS
Test: as above
Conditions: compound 0.5 µM; ATP 10 µM

Row | Structure (SMILES) | residual activity [%]
57 | O=C1NC(=O)c2cc(Nc3ccc(F)cc3)c(Nc3ccc(F)cc3)cc21 | 121
58 | N#CCCc1ccc2c(c1)-c1[nH]c3ccc([N+](=O)[O-])cc3c1CC(=O)N2 | 119
59 | O=c1c2ccccc2[nH]c(=S)n1CCN1CCC(=C(c2ccc(F)cc2)c2ccc(F)cc2)CC1 | 102
60 | O=S(=O)(NCCNC/C=C/c1ccc(Br)cc1)c1cccc2cnccc12 | 108

Biological target: CAMK2B (human) (UniProt Q13554)
Test: as above
Conditions: compound 0.5 µM; ATP 10 µM

Row | Structure (SMILES) | residual activity [%]
61 | O=C1NC(=O)c2cc(Nc3ccc(F)cc3)c(Nc3ccc(F)cc3)cc21 | 98.7
62 | N#CCCc1ccc2c(c1)-c1[nH]c3ccc([N+](=O)[O-])cc3c1CC(=O)N2 | 99.3
63 | O=c1c2ccccc2[nH]c(=S)n1CCN1CCC(=C(c2ccc(F)cc2)c2ccc(F)cc2)CC1 | 102
64 | O=S(=O)(NCCNC/C=C/c1ccc(Br)cc1)c1cccc2cnccc12 | 93.3

Biological target: CDK6 CCND3 (human) (UniProt P30281+Q00534)
Sequence (P30281 whole entry, looked up): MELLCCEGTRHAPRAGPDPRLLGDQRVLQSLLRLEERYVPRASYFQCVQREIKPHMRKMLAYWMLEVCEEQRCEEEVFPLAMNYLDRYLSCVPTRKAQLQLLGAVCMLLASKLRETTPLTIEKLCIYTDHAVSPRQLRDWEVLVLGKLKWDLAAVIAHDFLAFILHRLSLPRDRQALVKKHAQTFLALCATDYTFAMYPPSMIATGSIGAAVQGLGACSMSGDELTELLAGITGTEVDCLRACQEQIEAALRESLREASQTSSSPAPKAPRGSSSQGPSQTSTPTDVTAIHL
Sequence (Q00534 whole entry, looked up): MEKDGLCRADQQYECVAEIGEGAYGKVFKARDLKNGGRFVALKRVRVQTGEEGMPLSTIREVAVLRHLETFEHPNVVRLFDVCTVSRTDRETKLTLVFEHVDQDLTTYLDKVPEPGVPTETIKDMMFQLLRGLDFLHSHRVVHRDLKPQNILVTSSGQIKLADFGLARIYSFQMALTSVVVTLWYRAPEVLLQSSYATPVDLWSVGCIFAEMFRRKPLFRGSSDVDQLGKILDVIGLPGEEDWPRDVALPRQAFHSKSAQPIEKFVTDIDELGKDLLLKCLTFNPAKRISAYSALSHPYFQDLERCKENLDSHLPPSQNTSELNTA
Test: as above
Conditions: compound 0.5 µM; ATP 10 µM

Row | Structure (SMILES) | residual activity [%]
65 | O=C1NC(=O)c2cc(Nc3ccc(F)cc3)c(Nc3ccc(F)cc3)cc21 | 89.9
66 | N#CCCc1ccc2c(c1)-c1[nH]c3ccc([N+](=O)[O-])cc3c1CC(=O)N2 | 26
67 | O=c1c2ccccc2[nH]c(=S)n1CCN1CCC(=C(c2ccc(F)cc2)c2ccc(F)cc2)CC1 | 98.2
68 | O=S(=O)(NCCNC/C=C/c1ccc(Br)cc1)c1cccc2cnccc12 | 96.6

Biological target: MAP4K2 (human) (UniProt Q12851)
Sequence (Q12851 whole entry, looked up): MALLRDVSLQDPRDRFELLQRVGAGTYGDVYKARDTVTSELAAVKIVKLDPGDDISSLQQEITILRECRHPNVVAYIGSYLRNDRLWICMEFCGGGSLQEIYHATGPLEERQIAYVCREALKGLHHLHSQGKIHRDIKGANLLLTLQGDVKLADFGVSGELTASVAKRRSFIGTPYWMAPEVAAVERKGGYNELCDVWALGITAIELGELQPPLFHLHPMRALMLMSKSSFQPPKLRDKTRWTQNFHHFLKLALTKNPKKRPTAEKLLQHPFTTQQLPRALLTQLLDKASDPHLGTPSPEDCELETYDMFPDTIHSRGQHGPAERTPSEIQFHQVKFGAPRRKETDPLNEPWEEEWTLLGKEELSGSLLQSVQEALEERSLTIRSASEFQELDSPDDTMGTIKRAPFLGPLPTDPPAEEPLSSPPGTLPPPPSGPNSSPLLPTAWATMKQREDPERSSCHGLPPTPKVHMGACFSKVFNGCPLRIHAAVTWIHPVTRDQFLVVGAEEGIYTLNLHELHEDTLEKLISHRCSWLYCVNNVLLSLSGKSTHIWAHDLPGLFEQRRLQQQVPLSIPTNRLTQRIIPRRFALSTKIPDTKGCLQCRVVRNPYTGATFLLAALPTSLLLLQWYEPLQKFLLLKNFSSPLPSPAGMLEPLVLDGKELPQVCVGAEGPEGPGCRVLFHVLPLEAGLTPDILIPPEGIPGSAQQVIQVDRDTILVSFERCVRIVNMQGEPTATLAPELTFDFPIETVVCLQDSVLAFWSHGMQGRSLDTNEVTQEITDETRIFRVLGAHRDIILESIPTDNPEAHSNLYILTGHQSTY
Test: as above
Conditions: compound 0.5 µM; ATP 10 µM

Row | Structure (SMILES) | residual activity [%]
69 | O=C1NC(=O)c2cc(Nc3ccc(F)cc3)c(Nc3ccc(F)cc3)cc21 | 98.2
70 | N#CCCc1ccc2c(c1)-c1[nH]c3ccc([N+](=O)[O-])cc3c1CC(=O)N2 | 14
71 | O=c1c2ccccc2[nH]c(=S)n1CCN1CCC(=C(c2ccc(F)cc2)c2ccc(F)cc2)CC1 | 112
72 | O=S(=O)(NCCNC/C=C/c1ccc(Br)cc1)c1cccc2cnccc12 | 51.1

Biological target: GSG2 (human) (UniProt Q8TF76)
Test: as above
Conditions: compound 0.5 µM; ATP 10 µM

Row | Structure (SMILES) | residual activity [%]
73 | O=C1NC(=O)c2cc(Nc3ccc(F)cc3)c(Nc3ccc(F)cc3)cc21 | 95.1
74 | N#CCCc1ccc2c(c1)-c1[nH]c3ccc([N+](=O)[O-])cc3c1CC(=O)N2 | 110
75 | O=c1c2ccccc2[nH]c(=S)n1CCN1CCC(=C(c2ccc(F)cc2)c2ccc(F)cc2)CC1 | 95.4
76 | O=S(=O)(NCCNC/C=C/c1ccc(Br)cc1)c1cccc2cnccc12 | 55.1

Biological target: MAP3K10 (human) (UniProt Q02779)
Test: as above
Conditions: compound 0.5 µM; ATP 10 µM

Row | Structure (SMILES) | residual activity [%]
77 | O=C1NC(=O)c2cc(Nc3ccc(F)cc3)c(Nc3ccc(F)cc3)cc21 | 90.6
78 | N#CCCc1ccc2c(c1)-c1[nH]c3ccc([N+](=O)[O-])cc3c1CC(=O)N2 | 30
79 | O=c1c2ccccc2[nH]c(=S)n1CCN1CCC(=C(c2ccc(F)cc2)c2ccc(F)cc2)CC1 | 99.6
80 | O=S(=O)(NCCNC/C=C/c1ccc(Br)cc1)c1cccc2cnccc12 | 85.5

Biological target: FLT1 (human) (UniProt P17948)
Test: as above
Conditions: compound 0.5 µM; ATP 10 µM

Row | Structure (SMILES) | residual activity [%]
81 | O=C1NC(=O)c2cc(Nc3ccc(F)cc3)c(Nc3ccc(F)cc3)cc21 | 81.5
82 | N#CCCc1ccc2c(c1)-c1[nH]c3ccc([N+](=O)[O-])cc3c1CC(=O)N2 | 99.7
83 | O=c1c2ccccc2[nH]c(=S)n1CCN1CCC(=C(c2ccc(F)cc2)c2ccc(F)cc2)CC1 | 95.2
84 | O=S(=O)(NCCNC/C=C/c1ccc(Br)cc1)c1cccc2cnccc12 | 90.8
